# Where two headings read alike, the source gives them in different places.
# What was measured:
# [1] = rcm bond, Hoveyda-Grubbs catalyst 2nd generation, 1,2-dichloroethane, 3 steps
# [2] = test system: recombinant NL-RLuc virus (NL4-3 with Renilla Luciferase gene) in MT-2 cells; experiment: Inhibition of HIV replication (NL-RLuc virus, luciferase readout in MT-2 cells); assay type: cell-based; conditions: 5 days of incubation, 10% FBS
# Excerpt: Inhibition of HIV Replication:
# A recombinant NL-RLuc proviral clone was constructed in which a section of the nef gene from NL4-3 was replaced with the Renilla Luciferase gene. This virus is fully infectious and can undergo multiple cycles of replication in cell culture. In addition, the luciferous reporter provides a simple and easy method for quantitating the extent of virus growth and consequently, the antiviral activity of test compounds. The plasmid pNLRLuc contains the proviral NL-Rluc DNA cloned into pUC18 at the PvuII site. The NL-RLuc virus was prepared by transfection of 293T cells with the plasmid pNLRLuc. Transfections were performed using the LipofectAMINE PLUS kit from Invitrogen (Carlsbad, Calif.) according to the manufacturer and the virus generated was titered in MT-2 cells. For susceptibility analyses, the titrated virus was used to infect MT-2 cells in the presence of compound, and after 5 days of incubation, cells were processed and quantitated for virus growth by the amount of expressed luciferase. Assay media was RPMI 1640 supplemented with 10% heat inactivated fetal bovine serum (FBS), 100 units/ml penicillin G/100 units/ml streptomycin, 10 mM HEPES buffer pH 7.55 and 2 mM L-glutamine. The results from at least 2 experiments were used to calculate the EC50 values. Luciferase was quantitated using the Dual Luciferase kit from Promega (Madison, Wis.). Susceptibility of viruses to compounds was determined by incubation in the presence of serial dilutions of the compound. The 50% effective concentration (EC50) was calculated by using the exponential form of the median effect equation where (Fa)=1/[1+(ED50/drug conc.)^m] (Johnson V A, Byington R T. Infectivity Assay. In Techniques in HIV Research. ed. Aldovini A, Walker B D. 71-76. New York: Stockton Press. 1990).
SMILES,EC50 [2] [nM],"EC50 ([2]; Renilla, NL43, 120 h) [nM]",further results
Cc1nc(C)c([C@H](OC(C)(C)C)C(=O)O)c2c1-c1ccc(cc1)OC(c1ccc(Cl)cc1)CCCCOC1(C)CCN2CC1 (stereo partly shown),,,"ring closure, yield of all isomers ([1]; from C=CCOC1(C)CCN(c2c(-c3ccc(OC(CC=C)c4ccc(Cl)cc4)cc3)c(C)nc(C)c2[C@H](OC(C)(C)C)C(=O)OCC)CC1, 6.25 mM, 70.0 °C, 0.5 h): 59.1%"
Cc1nc(C)c([C@H](OC(C)(C)C)C(=O)O)c2c1-c1ccc(cc1)OC(c1ccccc1)CCCCOC1(C)CCN2CC1 (stereo partly shown),,,"ring closure, yield of all isomers ([1]; from C=CCOC1(C)CCN(c2c(-c3ccc(OC(CC=C)c4ccccc4)cc3)c(C)nc(C)c2[C@H](OC(C)(C)C)C(=O)OCC)CC1, 70.0 °C, 1.0 h): 63.8%"
"Cc1nc(C)c([C@H](OC(C)(C)C)C(=O)O)c2c1-c1ccc(cc1)OC(c1ccccc1)CCCCOC1(C)CCN2CC1 (single isomer, unassigned) [Example 3]",854,,
"Cc1nc(C)c([C@H](OC(C)(C)C)C(=O)O)c2c1-c1ccc(cc1)OC(c1ccccc1)CCCCOC1(C)CCN2CC1 (single isomer, unassigned) [Example 4]",349,,
"Cc1nc(C)c([C@H](OC(C)(C)C)C(=O)O)c2c1-c1ccc(cc1)OC(c1ccc(Cl)cc1)CCCCOC1(C)CCN2CC1 (single isomer, unassigned) [Example 5]",,466,
"Cc1nc(C)c([C@H](OC(C)(C)C)C(=O)O)c2c1-c1ccc(cc1)OC(c1ccc(Cl)cc1)CCCCOC1(C)CCN2CC1 (single isomer, unassigned) [Example 6]",496,,
"Cc1cc(CN2CCCCCCOC3(C)CCN(CC3)c3c(c(C)nc(C)c3[C@H](OC(C)(C)C)C(=O)O)-c3ccc(cc3)C2)ccc1F [Example 1, (2S)-2-(tert-Butoxy)-2-{13-[(4-fluoro-3-methylphenyl)methyl]-4,6,21-trimethyl-20-oxa-1,5,13-triazatetracyclo[19.2.2.2^8,11.0^2,7]heptacosa-2,4,6,8,10,26-hexaen-3-yl}acetic acid]",,87,"ring closure, yield of all isomers ([1]; from C=CCCCN(Cc1ccc(-c2c(C)nc(C)c([C@H](OC(C)(C)C)C(=O)OCC)c2N2CCC(C)(OCC=C)CC2)cc1)Cc1ccc(F)c(C)c1, 70.0 °C, 0.83 h): 58.9%"
"Cc1cc(CN2CCCCCOC3(C)CCN(CC3)c3c(c(C)nc(C)c3[C@H](OC(C)(C)C)C(=O)O)-c3ccc(cc3)C2)ccc1F [Example 2, (2S)-2-(tert-Butoxy)-2-{13-[(4-fluoro-3-methylphenyl)methyl]-4,6,20-trimethyl-19-oxa-1,5,13-triazatetracyclo[18.2.2.2^8,11.0^2,7]hexacosa-2,4,6,8,10,25-hexaen-3-yl}acetic acid]",,249,"ring closure, yield of all isomers ([1]; from C=CCOC1(C)CCN(c2c(-c3ccc(CN(CC/C=C\CC)Cc4ccc(F)c(C)c4)cc3)c(C)nc(C)c2[C@H](OC(C)(C)C)C(=O)OCC)CC1, 4.35 mM, 75.0 °C, 1.33 h): 17.2%"

# From US9637501B2, “Pyridin-3-yl acetic acid macrocycles as inhibitors of human immunodeficiency virus replication” (priority 2014, dated 2017)
